Measurements as given in patent publication US20220307053A1, “REGULATABLE EXPRESSION SYSTEMS” (Novartis AG, priority 2019, published 2022).
Entries after “also recorded” stand apart in the source; their conditions may differ.

B1: modified SNX7 minigene (version 2): SNX7 minigene modified to reduce size and eliminate peptide expression in the absence of LMI070; tested in plasmid DL182 (nucleic acid)
DNA: GAAGAAGAAGATATCAAGTTAGCATTTACAGATTTGGCTGAGGAGAAGAACAGGTAATTAGTGTTGTTTGATATTGCTTCATTTTAAAGTTATTTGCTCATTTAGCATTTGATATTGCTTTCTATTGATTGTCCTAACTACTCCTCTTTCCTCTCCCTTCTCCATTTTTGAAGAGTTTGCAAAGGAAGGAAAGGAGCAGAGACTTGATTGAGCAGAAAATCATTTCAGGGCCTGTTCTCTATTGTCCTTGCTATCCTGTCTTCTGTAGCTATCTGAAACCATCAACAAAGGAGCACACCATGGCATCAGCAAAAGAGTAACAACATCTTTTTTTAAGTTCATTTTGTTTTTCAGTTGATTGTATTTCAATTTTTTTACAGCTGACTTTTCTCAGAGAAGTTTTTTTTTTATTGTAAACATACTTTTTCTAGAAAGTATATTTTAAAATAACATCTTTAACCTTATCTCTGGCTGAATTATTGAATATTTGAAATTATTACATTAACAAAATTTTGTCTTACAGCAGTGGTCCCCAACCTTCTTAGCAGTAGCATCCCTCATTAAGAATTAAAATTTGTAGAAATTGACAAGGATTCTGACAAGCTGTTGGGAGAGAAGAATAGAGCAGATTGCAGTAGGAACAGTTGTGTTAGAATTTATTAATCCTTTAACACTGAAAGTAAACTATTGTTGATTGCCTCTTGGTGTGTTTCCATTATTCAGTGCTCTTGCTAAGTGGGAGTCATTCCTTACATCAACCACCAACCTTCACTTGGAAGAAGCTAGCGAAGATAAACCT

Tests used:
[1] = system: pJSNX-GFP (SNX7 minigene ON-switch) in HEK293 cells; assay: GFP expression from SNX7 minigene ON-switch in HEK293 cells (fluorescent microscope, FACS); format: cell-based, human; conditions: LMI070 2 nm-1 uM, 48 hours post transfection, vs DMSO
Description: (§1) HEK293 cells were maintained in complete DMEM media and seeded in 24-well plate at 100,000 cells per well densite day before transfection. Each well was transfected with 2 ug of pJSNX-GFP plasmid DNA using Lipofectamine2000 (Invitrogen) according to manufacturer's protocol. Transfection media was replaced with complete DMEM 4 hours later. Initial 1 mM stock of LMI070 in DMSO was diluted in 1/1,000-1/500,000 in DMEM to achieve concentrations 2 nm-1 uM when added to the cells in 24 hours later. Control cells received 0.1% DMSO. GFP expression was evaluated 48 hours post transfection using fluorescent microscope. […] For quantitative analysis of GFP expression, cells were trypsinized and analyzed by FACS using SONY SH-800 flow cytometer. Mean fluorescence intensity was used for relative measurement of GFP expression. […] For RNA splicing analysis, total RNA was extracted from cells using Trizol (Invitrogen) according to manufacturer's protocol. cDNA was synthesized using Superscript III 1st strand supermix for qRT-PCR (Invitrogen). Inclusion of exon B was evaluated using qPCR by measuring amounts of exonB-exonC amplified by […] […] Amounts of constitutively spliced RNA (i.e. exonA-exonC) was measured using […] […]

[2] = system: SNX7 minigene exon B inclusion in HEK293 cells; assay: RNA splicing analysis by qPCR in pJSNX-GFP transfected HEK293 cells; format: cell-based, human
Description: as §1

[3] = system: SNX7 minigene exon B inclusion in primary rat neurons; assay: RNA splicing analysis by qPCR in pJSNX-GFP transfected primary rat neurons; format: cell-based
Description: Primary rat neurons were prepared from dissected rat embryo cortices digested with papain and cultured in complete Neurobasal media in 24-well poly-D-Lysine plates (Corning) at density 150,000 cells/well for 7 days. Half of the media was replaced with fresh media day before transfection. Each well was transfected with 2 ug of pJSNX-GFP plasmid DNA using Lipofectamine2000 (Invitrogen) according to manufacturer's protocol, except cells were washed three times with optiMEM before adding DNA-liposomes cocktails. Transfection media was replaced with conditioned media containing 50% fresh complete Neurobasal media 4 hours later. Next day, 1 mM stock of LMI070 in DMSO was diluted in 1/1,000-1/500,000 in DMEM to achieve concentrations 2 nm-1 uM when added to the cells. Control cells received 0.1% DMSO. GFP expression was evaluated 6 days post transfection using fluorescent microscope. […] For RNA splicing analysis, total RNA was extracted from cells using Trizol (Invitrogen) according to manufacturer's protocol. cDNA was synthesized using Superscript III 1st strand supermix for qRT-PCR (Invitrogen). Inclusion of exon B was evaluated using qPCR by measuring amounts of exonB-exonC amplified by […] […] Amounts of constitutively spliced RNA (i.e. exonA-exonC) was measured using […] […]

[4] = system: pSyn-snx7-PGRN (SNX7 switch) in primary rat neurons; assay: hPGRN expression by TR-FRET assay in pSyn-snx7-PGRN transfected primary rat neurons; format: cell-based; conditions: 100 nm LMI070, 6 days post transfection
Description: (§2) Primary rat neurons were prepared from dissected rat embryo cortices digested with papain and cultured in complete Neurobasal media in 24-well poly-D-Lysine plates (Corning) at density 150,000 cells/well for 7 days. Half of the media was replaced with fresh media day before transfection. […] Transfection media was replaced with conditioned media containing 50% fresh complete Neurobasal media 4 hours later. Next day, 1 mM stock of LMI070 in DMSO was diluted in 1/10,000 in DMEM to achieve concentrations 100 nm when added to the cells. Control cells received 0.01% DMSO. hPGRN expression was measured 6 days post transfection using TR-FRET assay. In pSyn-snx7-PGRN transfected cells, expression of hPGRN was induced by LMI070 more than 30 times comparing to DMSO-treated control (FIG. 6B). For RNA splicing analysis, total RNA was extracted from cells using Trizol (Invitrogen) according to manufacturer's protocol. cDNA was synthesized using Superscript III 1st strand supermix for qRT-PCR (Invitrogen). Inclusion of exon B was evaluated using qPCR by measuring amounts of exonB-exonC junction amplified by […] (SEQ ID NO: 103) and GCGGTTGCGAGGTTTATCT (SEQ ID NO: 104) primers pair as compared to total transgene mRNA amplified by primers specific to exon C, GCGGTTGCGAGGTTTATCT (SEQ ID NO: 104) and […] (SEQ ID NO: 105). […] Amounts of constitutively spliced RNA (i.e. exonA-exonC) was measured using […] […]

[5] = system: SNX7 minigene exon B inclusion in primary rat neurons; assay: RNA splicing analysis by qPCR in pSyn-snx7-PGRN transfected primary rat neurons; format: cell-based; conditions: 100 nm LMI070
Description: as §2

[6] = system: ssAAV9 hPGRN with SNX7 switch (version 1) in mouse brain; assay: Time course of hPGRN expression in mouse brain after oral LMI070 (ssAAV9 SNX7 switch version 1, TR-FRET); format: in vivo; conditions: C57Bl/6 mice
Description: ssAAV9 viral vector encoding hPGRN under control of synapsin promoter with SNX7 switch (version 1) was produced in HEK293 cells and purified by iodixanol. 2e10vg of AAV vector in 2 uL was injected ICV in C57Bl/6 neonatal mice at P0. At 4 weeks of age, 30 mg/kg of LMI070 or vehicle control was administered orally through gavage. 4-6 mice per group were taken down at specified time points (FIG. 7A). After transcardial perfusion with PBS posterior half of the left hemisphere was homogenyzed in Precellys tube. TR-FRET assay was used for measurement of human PGRN expressed from AAV vector. […] The transgenic protein expression returned to untreated levels after 4 days post LMI070 administration (FIG. 7B).

[7] = system: ssAAV9 hPGRN with SNX7 switch (version 1) in mouse brain; assay: Dose response of hPGRN expression in mouse brain after oral LMI070 (ssAAV9 SNX7 switch version 1, TR-FRET); format: in vivo, FVB mice
Description: ssAAV9 viral vector encoding hPGRN under control of synapsin promoter with SNX7 switch (version 1) was produced in HEK293 cells and purified by iodixanol. 2e10vg of AAV vector in 2 uL was injected ICV in FVB neonatal mice at P0. At 4 weeks of age, 3, 10 or 30 mg/kg of LMI070 or vehicle control was administered orally through gavage. 6-7 mice per group were taken down at specified time points (FIG. 8A). After transcardial perfusion with PBS posterior half of the left hemisphere was homogenyzed in Precellys tube. TR-FRET assay was used for measurement of human PGRN expressed from AAV vector. Sample of human cortex was used as a control for physiological PGRN levels (˜200 pg/mg).

[8] = system: SNX7 minigene switch in HEK293 cells; assay: Comparison of SNX7 switch version 1 and version 2 in HEK293 cells in response to LMI070; format: cell-based, human; conditions: HEK293, plasmid DL182 (version 2) vs DL180 (version 1), LMI070 100 nm-1 uM, 48 hours post transfection
Description: The modified SNX7 minigene (version 2) was inserted into a scAAV vector using molecular cloning techniques. The sequence of the vector comprising the modified SNX7 minigene (version 2) is shown in SEQ ID NO: 95. HEK293 cells were maintained in complete DMEM media and seeded in 24-well plate at 100,000 cells per well densite day before transfection. Each well was transfected with 2 ug of plasmid DNA DL180 containing SNX7 switch version 1 or plasmid DL182 containing SNX7 version 2 using Lipofectamine2000 (Invitrogen) according to manufacturer's protocol. Transfection media was replaced with complete DMEM 4 hours later. Initial 1 mM stock of LMI070 in DMSO was diluted in 1/1,000-1/500,000 in DMEM to achieve concentrations 100 nm-1 uM when added to the cells in 24 hours later. Control cells received 0.1% DMSO. GFP expression was evaluated 48 hours post transfection using fluorescent microscope.

Molecule | GFP expression (mean fluorescence intensity) [1] | Inclusion of exon B (exonB-exonC vs total transgene mRNA), upregulated as compared to DMSO-treated cells ([2]; HEK293, 125 nM LMI070) | exonA-exonC splicing, lower as compared to control DMSO-treated cells ([2]; HEK293, 1 uM LMI070) | Inclusion of exon B, upregulated as compared to DMSO-treated cells ([3]; 31 nM LMI070) | exonA-exonC splicing, lower as compared to control DMSO-treated cells ([3]; 500 nM LMI070) | expression of hPGRN induced, comparing to DMSO-treated control [4] | Inclusion of exon B, upregulated as compared to DMSO-treated cells [5] | exonA-exonC splicing, lower as compared to DMSO-treated cells [5] | time after which transgenic protein expression returned to untreated levels ([6]; 30 mg/kg LMI070 orally) | hPGRN expression in the brain post LMI070 administration (time course) ([6]; ssAAV9 ICV at P0, 30 mg/kg LMI070 orally at 4 weeks) | transgene expression in brain vs LMI070 dose ([7]; FVB mice, 3, 10 or 30 mg/kg LMI070 orally) | accumulation of transgenic hPGRN in the brain (time course) ([7]; FVB mice, ssAAV9 ICV at P0, 3, 10 or 30 mg/kg LMI070 orally at 4 weeks) | sensitivity of minigene switch in response to LMI070 (GFP expression) [8]
CC1(C)CC(Oc2ccc(-c3ccc(-c4cn[nH]c4)cc3O)nn2)CC(C)(C)N1 [LMI070, 5-(1H-Pyrazol-4-yl)-2-(6-((2,2,6,6-tetramethylpiperidin-4-yl)oxy)pyridazin-3-yl)phenol] | dose-dependent increase in GFP expression | 75 times | 60 times | more than 100 times | 30 times | more than 30 times | more than 150 times | 10 times | 4 days | rapid and transient induction of hPGRN expression in the brain after 24 hours post LMI070 administration; also recorded: switches on transgene expression in mouse brain in time-dependent manner | dose response; also recorded: switches on transgene expression in mouse brain in dose-dependent manner | rapid (12 hours post LMI070 administration) accumulation of transgenic hPGRN in the brain, which starts to decline at 24 hour point | –
B1 | – | – | – | – | – | – | – | – | – | – | – | – | more sensitive than the previous version
